Experiments:
Experiment in all cases: relative viability (nuclei count vs DMSO), 5 days (fraction); higher = more cells survive
Vorinostat + Decitabine = compound: O=C(CCCCCCC(=O)Nc1ccccc1)NO [Vorinostat] + Nc1ncn([C@H]2C[C@H](O)[C@@H](CO)O2)c(=O)n1 [Decitabine] (partner 2 µM)
Summary of the method: (§1)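 After 5 days of treatment, lung cancer cells in 1536-well plates were fixed and stained in a single step (final 0.05% Triton X-100, 1% formaldehyde, 1 ug/ml Hoechst) and their nuclei counted on 4× images. Treatment had been applied by pin tool the day after seeding as one drug alone or as a fixed anchor-drug dose with five library-drug doses (not always all listed) in √10 steps. Relative viability is the nuclei count of treated wells divided by that of vehicle wells, and values are medians of duplicate plates.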

Vorinostat + Lapatinib = compound: O=C(CCCCCCC(=O)Nc1ccccc1)NO [Vorinostat] + CS(=O)(=O)CCNCc1ccc(-c2ccc3ncnc(Nc4ccc(OCc5cccc(F)c5)c(Cl)c4)c3c2)o1 [Lapatinib] (partner 2 µM)
Summary of the method: as §1

Vorinostat + Alpelisib = compound: O=C(CCCCCCC(=O)Nc1ccccc1)NO [Vorinostat] + Cc1nc(NC(=O)N2CCC[C@H]2C(N)=O)sc1-c1ccnc(C(C)(C)C(F)(F)F)c1 [Alpelisib] (partner 2 µM)
Summary of the method: as §1

Vorinostat + Olaparib = compound: O=C(CCCCCCC(=O)Nc1ccccc1)NO [Vorinostat] + O=C(c1cc(Cc2n[nH]c(=O)c3ccccc23)ccc1F)N1CCN(C(=O)C2CC2)CC1 [Olaparib] (partner 8 µM)
Summary of the method: as §1

Vorinostat + Dasatinib = compound: O=C(CCCCCCC(=O)Nc1ccccc1)NO [Vorinostat] + Cc1nc(Nc2ncc(C(=O)Nc3c(C)cccc3Cl)s2)cc(N2CCN(CCO)CC2)n1 [Dasatinib] (partner 0.075 µM)
Summary of the method: as §1

Row | Cell Line | relative viability (Vorinostat + Decitabine; first compound 0.253 µM) | relative viability (Vorinostat + Decitabine; first compound 0.8 µM) | relative viability (Vorinostat + Decitabine; first compound 2.53 µM) | relative viability (Vorinostat + Decitabine; first compound 8 µM) | relative viability (Vorinostat + Lapatinib; first compound 0.253 µM) | relative viability (Vorinostat + Lapatinib; first compound 0.8 µM) | relative viability (Vorinostat + Lapatinib; first compound 2.53 µM) | relative viability (Vorinostat + Lapatinib; first compound 8 µM) | relative viability (Vorinostat + Alpelisib; first compound 0.253 µM) | relative viability (Vorinostat + Alpelisib; first compound 0.8 µM) | relative viability (Vorinostat + Alpelisib; first compound 2.53 µM) | relative viability (Vorinostat + Alpelisib; first compound 8 µM) | relative viability (Vorinostat + Olaparib; first compound 0.253 µM) | relative viability (Vorinostat + Olaparib; first compound 0.8 µM) | relative viability (Vorinostat + Olaparib; first compound 2.53 µM) | relative viability (Vorinostat + Olaparib; first compound 8 µM) | relative viability (Vorinostat + Dasatinib; first compound 0.253 µM) | relative viability (Vorinostat + Dasatinib; first compound 0.8 µM) | relative viability (Vorinostat + Dasatinib; first compound 2.53 µM) | relative viability (Vorinostat + Dasatinib; first compound 8 µM)
1 | LU99A | 0.949 | 0.702 | 0.389 | 0.156 | 1.01 | 0.871 | 0.315 | 0.169 | 0.517 | 0.395 | 0.178 | 0.126 | 0.232 | 0.177 | 0.104 | 0.101 | 0.607 | 0.591 | 0.242 | 0.172
2 | LXF-289 | 0.328 | 0.37 | 0.229 | 0.0489 | 0.985 | 0.859 | 0.468 | 0.116 | 1.1 | 1.04 | 0.351 | 0.0687 | 1.11 | 1.02 | 0.148 | 0.0576 | 0.316 | 0.347 | 0.226 | 0.0398
3 | NCI-H23 | 0.299 | 0.241 | 0.139 | 0.155 | 1.24 | 1.03 | 0.344 | 0.141 | 0.84 | 0.707 | 0.213 | 0.117 | 0.317 | 0.239 | 0.0822 | 0.084 | 0.922 | 0.671 | 0.41 | 0.0961
4 | NCI-H322M | 0.679 | 1.1 | 0.622 | 0.373 | 0.733 | 0.608 | 0.522 | 0.352 | 0.93 | 0.852 | 0.576 | 0.296 | 0.9 | 0.873 | 0.498 | 0.386 | 0.286 | 0.268 | 0.255 | 0.264
5 | NCI-H441 | 0.223 | 0.199 | 0.168 | 0.104 | – | – | – | – | 0.754 | 0.616 | 0.289 | 0.11 | 0.56 | 0.542 | 0.17 | 0.0865 | 0.846 | 0.557 | 0.285 | 0.138
6 | NCI-H1563 | – | – | – | – | 1.01 | 0.796 | 0.403 | 0.564 | 0.93 | 0.8 | 0.642 | 0.555 | – | – | – | – | 0.411 | 0.458 | 0.448 | 0.385
7 | NCI-H1650 | 0.351 | 0.359 | 0.27 | 0.135 | 0.803 | 0.484 | 0.287 | 0.118 | – | – | – | – | 0.737 | 0.62 | 0.316 | 0.16 | 0.397 | 0.292 | 0.201 | 0.141
8 | NCI-H1703 | – | – | – | – | 1.64 | 1.49 | 1.02 | 0.247 | 0.469 | 0.525 | 0.594 | 0.156 | 0.407 | 0.51 | 0.625 | 0.157 | – | – | – | –
9 | NCI-H2228 | – | – | – | – | 1.34 | 0.519 | 0.261 | 0.122 | 0.945 | 0.461 | 0.184 | 0.113 | 0.501 | 0.499 | 0.223 | 0.124 | 0.39 | 0.323 | 0.127 | 0.0817
10 | NCI-H2342 | 0.58 | 0.715 | 0.529 | 0.391 | – | – | – | – | – | – | – | – | 0.467 | 0.496 | 0.308 | 0.269 | 0.304 | 0.315 | 0.274 | 0.28
